According to US8618054B2, “Interleukin-1 receptor antagonists, compositions, and methods of treatment” (Valorisation-Rechereche Société en Commandite, priority 2004, dated 2013):
Marks after values point to notes of the source that are not given here. Each block holds one compound with its values, some of them ahead of it. Where a SMILES comes first, the peptide text is derived from it. Where no end group is shown, it is not given here. [ ]: non-standard residue; d: D form.

What was measured:
[1] = system: IL-1R/IL-1RacP receptor; test: Ex vivo vasomotricity: reversal of IL-1β-induced vasodilation of piglet pial vessels; settings: IL-1β 75 ng/ml
Protocol: Ex vivo vasomotor response on brain vessels was performed as described (Li et al., 1996; Hou et al., 2000; Hou et al., 2001; Hou et al., 2003). Brains were removed from Yorkshire piglets. Slices of cortex exposing the pial vessels were pinned to a wax base of a 20 ml bath containing Krebs buffer (pH 7.4) equilibrated with 95% O2, 5% CO2 and maintained at 37° C. Microvessels were visualized and recorded using a video camera mounted on a dissecting microscope. Vascular diameter was measured using a digital image analyzer. Vascular diameter was recorded before and after topical application of pre-constricting agent, U46619 (10^−7 M). After stabilization of preparation, the ligand (IL-1β, 75 ng/ml) was added until stable vasodilation was detected. Peptides were subsequently added at different concentrations from 10^−10 to 10^−5 M. Reversal of vasodilatation was visualized and measured as previously described (Hou, et al. 2000; Hou et al. 2001; Hou et al. 2003); triplicate measurements were conducted on 2 animals.

[2] = biological target: T1, IL-1R/IL-1RacP receptor (Homo sapiens, UniProt P14778); test: IL-1β-induced proliferation in TF-1 cells; type: cell-based; set-up: endogenous in cells; host or cells: TF-1 cells
T1 sequence (P14778 18-569): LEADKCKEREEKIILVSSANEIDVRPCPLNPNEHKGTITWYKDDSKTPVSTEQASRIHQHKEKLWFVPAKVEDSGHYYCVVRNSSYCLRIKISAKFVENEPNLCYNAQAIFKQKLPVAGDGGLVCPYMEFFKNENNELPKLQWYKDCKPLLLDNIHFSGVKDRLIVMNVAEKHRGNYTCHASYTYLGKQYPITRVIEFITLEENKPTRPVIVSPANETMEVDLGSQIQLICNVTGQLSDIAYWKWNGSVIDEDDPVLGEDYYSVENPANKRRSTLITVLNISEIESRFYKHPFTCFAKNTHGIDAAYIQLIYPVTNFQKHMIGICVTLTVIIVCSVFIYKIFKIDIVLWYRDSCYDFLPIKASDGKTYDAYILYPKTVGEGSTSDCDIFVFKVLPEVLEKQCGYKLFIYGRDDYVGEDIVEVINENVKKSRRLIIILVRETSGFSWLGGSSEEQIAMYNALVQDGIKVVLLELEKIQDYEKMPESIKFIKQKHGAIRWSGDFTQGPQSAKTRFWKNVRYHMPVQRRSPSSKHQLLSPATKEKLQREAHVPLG

[3] = TNBS-induced inflammatory bowel disease rat model, Example 6 (48 h; MPO, macroscopic, histologic); type: in vivo; set-up: macroscopic evaluation (median score): scale not given here
Protocol: Colon inflammation was induced by intra-rectal/colon administration of the hapten trinitrobenzene sulphonic acid (TNBS) on male Sprague-Dawley rats (175-200 g) (Bouma, Nature Rev, 2003; Morris, Gastroenterology, 1989). Animals were anesthetized with isoflurane and TNBS dissolved in 50% ethanol (vol/vol). 120 mg/ml (TNBS) was administered into the colon (total volume of 0.25 ml per rat) using a polyethylene tube (PE50). The cannula was inserted at 8 cm from the anus and kept in place for at least 15 min after TNBS administration in order to prevent expulsion of the solution. […] A third group (control) was not injected with TNBS. Six days after administration of TNBS, rats were killed by CO2 inhalation. Day 6 was chosen as an endpoint because by day 7 spontaneous tissue regeneration begins and this can mask the therapeutic effect of the tested peptide or peptide derivative. Colon was removed and examined macroscopically (adhesions, ulcerations, discoloration and bleeding) and histologically (neutrophil infiltration, epithelial injury, crypt distortion and ulcerations) (Anthony et al. 1995; Padol et al. 2000; Dieleman, L A, et al. 1997; Torres M I et al. 1999). Two animals per group were studied.
Colon inflammation was induced by intra-rectal/colon administration of the hapten trinitrobenzene sulphonic acid (TNBS) as described in Example 4. Two hours prior to TNBS administration, peptides, peptidomimetics or 0.9% saline were administered intravenously (iv) via the caudal vein (various concentrations of mg/kg/d) (total volume of 0.3 ml). […] A third group (control) was not injected with TNBS. […] Also, these IL-1R antagonists were given twice a day (BID); Remicade® (anti-TNFα) (10 mg/kg) and dexamethasone (0.75 mg/kg) were administered intraperitoneally but only once a day (qd). The intrarectal administration (ir) of 101.10, 101.113 (1 and 2.5 mg/kg), and 5-ASA (50 mg/kg) was done one hour after TNBS administration, and twice a day, except for 5-ASA which is once a day. Finally, 101.10 (1-5 mg/kg) was also administered orally by gavage (po), twice a day. Forty-eight hours after administration of TNBS, rats were killed by CO2 inhalation. Colon was removed and assessed macroscopically (adhesions, ulcerations, discoloration and bleeding) and histologically (neutrophil infiltration, epithelial injury, crypt distortion and ulcerations). One to seven animals per group were studied, according to treatments. Myeloperoxidase (MPO) activity was measured on tissue lysates.

[4] = biological target: T2, IL-1R/IL-1RacP receptor (Sus scrofa, UniProt A0A5G2QSI4); test: IL-1-induced PGE2 synthesis in piglet brain microvascular endothelial cells; type: cell-based, porcine; settings: for Emax: Table 4, read-out: PGE2 synthesis in endothelial cells (porcine) Emax (%); for inhibition of IL-1-induced PGE2 synthesis, compared with parent API-101: alanine scan peptides 10^−6M, endothelial cells
T2 construct: endogenous in cells; host or cells: piglet brain microvascular endothelial cells
T2 sequence (A0A5G2QSI4 21-572): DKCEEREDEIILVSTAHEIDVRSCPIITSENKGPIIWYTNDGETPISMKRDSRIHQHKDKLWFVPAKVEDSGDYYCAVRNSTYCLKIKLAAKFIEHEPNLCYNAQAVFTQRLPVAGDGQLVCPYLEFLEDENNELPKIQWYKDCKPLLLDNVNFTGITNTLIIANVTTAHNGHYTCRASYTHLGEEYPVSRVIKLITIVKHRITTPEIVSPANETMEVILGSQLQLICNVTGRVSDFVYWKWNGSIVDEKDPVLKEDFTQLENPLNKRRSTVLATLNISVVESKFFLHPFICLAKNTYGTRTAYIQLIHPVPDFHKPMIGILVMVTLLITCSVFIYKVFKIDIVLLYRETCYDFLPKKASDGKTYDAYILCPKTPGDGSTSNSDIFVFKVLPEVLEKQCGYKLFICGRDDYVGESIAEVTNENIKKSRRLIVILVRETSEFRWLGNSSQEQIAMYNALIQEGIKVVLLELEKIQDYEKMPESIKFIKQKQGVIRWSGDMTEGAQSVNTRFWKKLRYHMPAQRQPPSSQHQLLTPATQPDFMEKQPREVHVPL
Protocol: (§1) It is well known in the art that IL-1 induces the synthesis of prostaglandin E2 (PGE2) in endothelial cells and/or chondrocytes in vitro. Therefore, human chondrocytes and piglet brain microvascular endothelial cells were pre-incubated 45-60 minutes at 37° C. with peptide API-101 (^10−6M) and human IL-1 (10 ng/ml) was added in the growing medium. After 24 hours of incubation, growth medium was collected and evaporated. PGE2 measurement was determined by RIA assay with a commercial kit (Cederlane).

[5] = biological target: T1, IL-1R/IL-1RacP receptor; test: IL-1-induced PGE2 synthesis in human chondrocytes; type: cell-based; set-up: endogenous in cells; settings: alanine scan peptides 10^−6M
Protocol: as §1

[6] = Table 5, derivatives of 101.113
[7] = Table 4: TF-1 proliferation and PGE2 synthesis in endothelial cells, derivatives of 101.107
[8] = Continuous infusion (ip), 8.0 mg/kg/d
[9] = Intrarectal administration, 50.0-qd mg/kg/d
[10] = Intermittent injection (ip), 10.0-qd mg/kg/d

reversal of IL-1β-induced vasodilation [1]: reversed the vasodilation
Compound: APRATVELA [API-101.3]

activity of the peptide, in words [2, 6]: little or no activity
Compound: CC(C)C[C@@H](NC(=O)[C@@H](CCC(=O)O)NC(=O)[C@H]1CCCN1C(=O)[C@H](NC(=O)[C@@H](Cc1ccc(O)cc1)NC(=O)[C@H](N)CCCNC(N)=O)[C@H](C)O)C(N)=O [API-101.134, XYTPEL (X = Citrulline)]

activity of the peptide, in words [2, 6]: relatively decreased
Compound: CC(C)C[C@@H](NC(=O)[C@@H](CCC(=O)O)NC(=O)[C@H]1CCCN1C(=O)[C@H](NC(=O)[C@@H](Cc1ccccc1)NC(=O)[C@H](N)CCCNC(=N)N)[C@H](C)O)C(N)=O [API-101.132, RFTPEL] (HELM PEPTIDE1{[dR].[dF].[dT].[dP].[dE].[dL].[am]}$$$$V2.0; N-terminus and C-terminus assumed)

activity of the peptide, in words [2, 7]: completely lost
Compound: XRYTPELA (X = Acetyl) (Ac-[dR][dY][dT][dP][dE][dL][dA]) [API-101.121]

activity of the peptide, in words [2, 6]: little or no activity
Compound: XYTPEL (X = Ornithine) [API-101.126]

activity of the peptide, in words [2, 6]: little or no activity
Compound: KYTPEL ([dK][dY][dT][dP][dE][dL]) [API-101.133]

Compound: Kineret: natural soluble receptor IL-1Ra mimetic, Anakinra, developed by Amgen [reference compound]
MPO (% of TNBS + Saline) [3, 8]: 63 % of TNBS + Saline
histologic evaluation (median score) [3, 8]: 2 (Small ulcer (<5 crypts))

Emax [4]: 100%
Compound: CC(C)C[C@@H](NC(=O)[C@@H](CC(=O)O)NC(=O)[C@H]1CCCN1C(=O)[C@H](NC(=O)[C@@H](Cc1ccc(O)cc1)NC(=O)[C@H](N)CCCNC(=N)N)[C@H](C)O)C(=O)N[C@H](C)C(N)=O [API-101.117, RYTPDLA] (HELM PEPTIDE1{[dR].[dY].[dT].[dP].[dD].[dL].[dA].[am]}$$$$V2.0; N-terminus and C-terminus assumed)

inhibition of IL-1-induced PGE2 synthesis, compared with parent API-101 [4]: lost almost all activity
inhibition of IL-1-induced PGE2 synthesis, compared with parent API-101 [5]: lost almost all activity
Compound: APRYTAELA [API-101.5]

Emax [4]: 45%
Compound: CC(C)C[C@@H](NC(=O)[C@@H](CCC(=O)O)NC(=O)[C@H]1CCCN1C(=O)[C@H](NC(=O)[C@@H](Cc1c[nH]c2ccccc12)NC(=O)[C@H](N)CCCNC(=N)N)[C@H](C)O)C(=O)N[C@H](C)C(N)=O [API-101.116, RWTPELA] (HELM PEPTIDE1{[dR].[dW].[dT].[dP].[dE].[dL].[dA].[am]}$$$$V2.0; N-terminus and C-terminus assumed)

inhibition of IL-1-induced PGE2 synthesis, compared with parent API-101 [4]: lost almost all activity
inhibition of IL-1-induced PGE2 synthesis, compared with parent API-101 [5]: lost almost all activity
Compound: APRYTVEAA [API-101.7]

Compound: C[C@@H]1C[C@H]2[C@@H]3CCC4=CC(=O)C=C[C@]4(C)[C@@]3(F)[C@@H](O)C[C@]2(C)[C@@]1(O)C(=O)CO [Dexamethasone, dexamethasone, reference compound]
MPO (% of TNBS + Saline) ([3]; Intermittent injection (ip), 0.75-qd mg/kg/d): 60 % of TNBS + Saline

activity of the peptide, in words [2, 6]: lowered but not lost completely
Compound: CC(C)C[C@@H](NC(=O)[C@@H](CCC(=O)O)NC(=O)[C@H]1CCCN1C(=O)[C@H](NC(=O)[C@@H](Cc1ccc(O)cc1)NC(=O)[C@@H](N)CCCNC(=N)N)[C@H](C)O)C(N)=O [API-101.135, *RYTPEL]

Compound: Nc1ccc(O)c(C(=O)O)c1 [5-ASA, reference compound]
MPO (% of TNBS + Saline) [3, 9]: 49 % of TNBS + Saline
histologic evaluation (median score) [3, 9]: 3.3
macroscopic evaluation (median score) [3, 9]: 1.5

activity of the peptide, in words [2, 6]: completely abolished the activity
Compound: RFVPELA [API-101.127]

Emax [4]: 50%
activity of the peptide, in words [2, 7]: maintains its activity
Compound: CC(C)C[C@@H](NC(=O)[C@@H](CCC(=O)O)NC(=O)[C@H]1CCCN1C(=O)[C@H](NC(=O)[C@@H](Cc1ccc(O)cc1)NC(=O)[C@H](N)CCCCN)[C@H](C)O)C(=O)N[C@H](C)C(N)=O [API-101.114, KYTPELA] (HELM PEPTIDE1{[dK].[dY].[dT].[dP].[dE].[dL].[dA].[am]}$$$$V2.0; N-terminus and C-terminus assumed)

Emax ([2]; TF-1, Table 5): 100%
activity of the peptide, in words [2, 6]: relatively decreased
Compound: CC(C)C[C@@H](NC(=O)[C@@H](CCC(=O)O)NC(=O)[C@H]1CCCN1C(=O)[C@H](NC(=O)[C@@H](Cc1c[nH]c2ccccc12)NC(=O)[C@H](N)CCCNC(=N)N)[C@H](C)O)C(N)=O [API-101.128, RWTPEL]

activity of the peptide, in words [2, 7]: maintains its activity
Compound: CC(C)C[C@@H](NC(=O)[C@@H](CCC(=O)O)NC(=O)[C@H]1CCCN1C(=O)[C@H](NC(=O)[C@@H](Cc1ccc(O)cc1)NC(=O)[C@H](N)CCCN)[C@H](C)O)C(=O)N[C@H](C)C(N)=O [API-101.115, XYTPELA (X = Ornithine)] (HELM PEPTIDE1{[NCCC[C@@H](N)C(=O)[*:2]].[dY].[dT].[dP].[dE].[dL].[dA].[am]}$$$$V2.0; N-terminus and C-terminus assumed)

Compound: Remicade: anti-TNFα [reference compound]
MPO (% of TNBS + Saline) [3, 10]: 88 ± 41 % of TNBS + Saline
histologic evaluation (median score) [3, 10]: 2.5 (1-3.75)**
macroscopic evaluation (median score) [3, 10]: 0.5
